Measured values reported in publication PMC7274539, “The selective glucocorticoid receptor antagonist CORT125281 has tissue-specific activity” (The Journal of Endocrinology, 2020).
Read-outs that look alike come from different tables or passages of the source.

Key:
[1] = system: hypothalamus-pituitary-adrenal (HPA)-axis activity; assay: Basal and novelty stress-induced HPA-axis activity (ACTH, corticosterone, pituitary Pomc, adrenal weight); format: in vivo, C57Bl/6J mice
Description: (§1) All studies involving animals were approved by the institutional ethics committee on animal care and experimentation at the Leiden University Medical Center. The 8-week old male C57Bl/6J mice (Charles River) were housed in ventilated cages with a 12 h light:12 h darkness regime and ad libitum access to food and water. In the acute corticosterone exposure experiments, mice received a synthetic chow diet (Research Diets, New Brunswick, NJ, USA) containing vehicle or CORT125281 (6, 20 or 60 mg/kg/day, Corcept Therapeutics, Menlo Park, CA, USA) for 6 days. […] Mice were treated daily with vehicle, 60 mg/kg mifepristone (Corcept Therapeutics) or 60 mg/kg CORT125281 (dissolved in PBS with 0.1% Tween 80 and 0.5% hydroxypropylmethylcellullose, Corcept Therapeutics) via oral gavage for 5 days, after which mice were killed by CO2 inhalation. Throughout the experiment, body weight was monitored and body composition was determined with EchoMRI™ (Frankfurt, Germany). After 5 days, blood was collected from the lateral tail vain in paraoxon-coated capillaries after a 6-h fast. Plasma triglyceride, total cholesterol, free fatty acid, glucose and insulin levels were determined using commercially available kits (Roche; Instruchemie, Delfzijl, Netherlands and Crystal Chem, Zaandam, Netherlands). Blood concentrations of the major leukocyte classes, that is, lymphocytes, monocytes and eosinophils, were determined in whole blood using an automatic veterinary hematology analysis (Sysmex XT-2000iV; Goffin Meyvis, Etten-Leur, the Netherlands).
In both acute and subchronic corticosterone experiments, relevant tissues (including quadriceps muscle, interscapular BAT, gonadal white adipose tissue (WAT), adrenals, spleen, thymus, pituitary and hippocampus) were collected to determine tissue weight and/or for further molecular analysis.
Novelty stress tests were performed in the morning (between 08:00–12:00 h) after 2 days of exposure to CORT125281. At t = 0, a blood sample was collected, after which mice were placed in a novel cage without bedding. After 10 min, a second blood sample was collected and mice were placed back in their original home cage.
(§2) For dual label in situ hybridization, frozen unfixed pituitaries were embedded in tissue-tek OCT (Sakura Finetek, Alphen aan den Rijn, Netherlands), sliced (12 µm) and collected on glass slides (Superfrost Plus, Thermo Fisher Scientific). Dual label in situ hybridization was performed using the QuantiGene ViewRNA ISH Tissue 2-Plex Assay (Thermo Fisher Scientific) and pictures were captured with a wide-field microscope (DM6B, Leica Microsystems). For 4-plex in situ hybridization, frozen, unfixed brain slices (12 µm) were collected on glass slides at bregma −0.772 mm (PVN) and −1.532 mm (hippocampus). 4-plex in situ hybridization was performed using the RNAScope fluorescent multiplex assay and RNAscope 4-plex ancillary kit (Advanced Cell Diagnostics, Newark, CA, USA) and Opal fluorophores 520, 570, 620 and 690 (PerkinElmer). Pictures were captured with a confocal microscope (SP8 WLL, Leica Microsystems). All pictures were analysed with ImageJ Software (NIH).

male C57Bl/6J mice = assay: Body weight, food intake and immune cell counts under CORT125281 via the diet; format: in vivo; conditions: for body weight / food intake: 6 days
Description: as §1

GR activity in the brain = assay: In situ hybridization of Gilz mRNA, Fkbp5 hnRNA, Nr3c1 and Nr3c2 in hippocampus and PVN; format: in vivo, C57Bl/6J mice
Description: as §1, §2

other nuclear receptors = system: other nuclear receptors; parameters: method as in Kroon et al. 2018; conditions: ref Kroon et al. 2018; cited from earlier work
[2] = Quantification of serum and tissue CORT125281 concentration by LC-MS; format: in vivo, C57Bl/6J mice; conditions: male, C57Bl/6J, mouse, oral, 60 mg/kg/day for 6 days, mice
Description: as §1
Compound levels were assessed against standard curves for CORT125281, ranging from 0.05–20 µM in each tissue. Tissues were weighed and water was added at three-fold the weight of each individual sample before homogenising. Internal standard (90 µL of 1 µM leucine enkephalin in acetonitrile) was added to all samples, standard curves and quality control spikes of CORT125281. After centrifugation, a fixed volume of supernatant was removed and pellets were dissolved in water. The samples were then analysed by LC-MS utilising a QTRAP 5500 mass spectrometer (Sciex, Warrington, UK), UPLC (Agilent) instrument, equipped with a C18 Cortecs UPLC analytical column (2.1 × 30 mm, […]). […] The gradient started with a mobile phase composition of 5% B which was held for 0.1 min. The percentage of B was then linearly ramped to 95% over 0.1 to 1.2 min and then held constant up to 1.3 min. […] The mass spectrometer was set to operate in negative ion mode. The ion source temperature was 650°C, the ion spray voltage was −4000 V, gases 1, 2 and curtain gas were 30 V, 60 V and 35 V, respectively, and the entrance and collisition exit potential were −10 V and −13 V. The collision energy and declustering potential used for the multiple reaction monitoring (MRM) transitions of CORT125281 were −28 V and −60 V, the Q1 and Q3 masses were 588.649 Da and 248.800 Da, while the collision energy and declustering potential for the internal standard were −40 V and 0 V and the Q1 and Q3 masses 554.2 Da and 235.9 Da.

GR = conditions: ref Kroon et al. 2018; cited from earlier work
[3] = 20 mg/kg/day CORT125281 6 days, corticosterone injection 1 h

In the case of `Cn1ncc(S(=O)(=O)N2CC[C@H]3Cc4c(cnn4-c4ccc(F)cc4)C[C@]3(C(=O)c3cc(C(F)(F)F)ccn3)C2)n1` [CORT125281], the adrenal weights ([1]; 60 mg/kg/day) is reported as “did not alter”, the “peak and trough corticosterone levels” value ([1]; 60 mg/kg/day) is reported as “did not alter” and the “peak novelty stress-induced corticosterone levels” value ([1]; 60 mg/kg/day) is reported as “slightly attenuated”. The “slope of corticosterone during the recovery phase (t = 30 to 120 min)” value ([1]; 60 mg/kg/day, novelty stress) was “unaltered”, the “GR (Nr3c1) mRNA expression in the anterior pituitary” value ([1]; 6-20 mg/kg/day) was “increased” and the “expression of pro-opiomelanocortin (Pomc) in the anterior pituitary” value ([1]; 6-20 mg/kg/day) was “unaltered”. For the same compound, the weight of adrenals ([1]; 6-20 mg/kg/day) was “unaltered”, the “basal peak or trough corticosterone levels” value ([1]; 6-20 mg/kg/day, 08:00 h and 18:00 h) was “did not alter” and the “corticosterone levels after novelty stress” value ([1]; 6 and 20 mg/kg/day vs vehicle, all measured time points, day 2) was “similar”. For the same compound, the “circulating levels of ACTH” value ([1]; 6 and 20 mg/kg/day, 18:00 on day 4) was “unchanged”, the “immune counts (WBC, lymphocytes, monocytes, eosinophils)” value (male C57Bl/6J mice; 60 mg/kg/day via diet 6 days, without excess corticosterone exposure) was “did not alter” and the body weight (male C57Bl/6J mice; 60 mg/kg/day via food) was “did not alter”. The food intake (male C57Bl/6J mice; 60 mg/kg/day via food) was “did not alter”, the body weight (male C57Bl/6J mice; 6 and 20 mg/kg/day via food) was “did not alter” and the food intake (male C57Bl/6J mice; 6 and 20 mg/kg/day via food) was “did not alter”. The “Nr3c1 (Gr) mRNA levels in the hippocampus” value (GR activity in the brain; [3]) was “Neither corticosterone nor CORT125281 affected”, the “Nr3c1 or Nr3c2 expression in the PVN” value (GR activity in the brain; [3]) was “Neither corticosterone nor CORT125281 affected” and the “basal mineralocorticoid receptor (MR; Nr3c2) mRNA expression in the hippocampus” value (GR activity in the brain; 6-20 mg/kg/day) was “increased”. For the same compound, the “corticosterone-induced Fkbp5 hnRNA and Gilz mRNA levels in the PVN” value (GR activity in the brain; 6-20 mg/kg/day) was “had little effect”, the “corticosterone induction of Gilz mRNA and Fkbp5 hnRNA in hippocampal subfields” value (GR activity in the brain; 6-20 mg/kg/day, corticosterone 1 h before tissue collection) was “did not prevent this induction” and the “basal levels of Fkbp5 hnRNA in CA2 and CA3 regions” value (GR activity in the brain; 6-20 mg/kg/day, hippocampus) was “upregulated”. The “cross-reactivity with other nuclear receptors” value (other nuclear receptors) was “lacks cross-reactivity”, the Kp at 6 days ([2]; BAT (brown adipose tissue) relative to plasma, read-out: tissue to plasma ratio, BAT) was 19.1 and the concentration at 6 days ([2]; BAT (brown adipose tissue), BAT, read-out: CORT125281 level, BAT) was 4720 ng/g. The Kp at 6 days ([2]; WAT (white adipose tissue) relative to plasma, read-out: tissue to plasma ratio, WAT) was 46.7, the Kp at 6 days ([2]; brain (neocortex) relative to plasma, neocortex, read-out: tissue to plasma ratio, brain) was 1.8 and the concentration at 6 days ([2]; gonadal WAT (white adipose tissue), gonadal WAT, read-out: CORT125281 level, WAT) was 12500 ng/g. For the same compound, the Kp at 6 days ([2]; liver relative to plasma, read-out: tissue to plasma ratio, liver) was 8, the concentration at 6 days ([2]; brain neocortex, read-out: CORT125281 level, brain) was 542 ng/g and the concentration at 6 days ([2]; liver, read-out: CORT125281 level, liver) was 2040 ng/g. The concentration at 6 days ([2]; plasma, read-out: CORT125281 level, plasma) was 419 ng/g and the “partial agonism at GR in reporter assays” value (GR) was “very low partial agonism”.
